In paper PMC8531085, “Proton Pump Inhibitors Inhibit PHOSPHO1 Activity and Matrix Mineralisation In Vitro” (Calcified Tissue International, 2021):
“And” between values parts separate entries of the source, which are not always exact repeats. Equal values may be shown once. “Also recorded” adds a separate entry of the source.

How the values were obtained:
[1] = target: T1, Recombinant human PHOSPHO1 (Homo sapiens, UniProt Q8TCT1); assay: PHOSPHO1 phosphatase assay (BIOMOL Green, β-glycerol phosphate); format: biochemical; details: for Inhibition of PHOSPHO1 activity (in words): all concentrations tested (0-100 µM); for IC50: recombinant human PHOSPHO1 50 ng, 0-100 µM, 2.5 mM β-glycerol phosphate, read-out: IC50, inhibition of PHOSPHO1 activity
T1 construct: made in house
T1 sequence (Q8TCT1 1-267): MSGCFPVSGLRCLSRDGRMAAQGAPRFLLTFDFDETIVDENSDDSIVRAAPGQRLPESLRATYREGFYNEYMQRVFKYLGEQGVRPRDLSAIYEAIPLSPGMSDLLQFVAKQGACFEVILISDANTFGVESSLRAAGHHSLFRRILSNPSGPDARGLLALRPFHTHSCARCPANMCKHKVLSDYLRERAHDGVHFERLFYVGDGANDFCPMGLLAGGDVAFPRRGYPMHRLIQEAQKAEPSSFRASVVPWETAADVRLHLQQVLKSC
Protocol: Recombinant human PHOSPHO1 (50 ng) was generated as previously described and incubated with varying concentrations of the aforementioned PPIs and […] in experimental assay buffer (20 mM Tris, 2 mM MgCl2 & 25 μg/ml BSA) at 37 °C for 15 min. Using the BIOMOL® Green assay (Enzo, Exeter, UK), standards (0-2 nM) and samples were then incubated with 2.5 mM β-glycerol phosphate for 30 min at 37 °C with gentle agitation. The reaction was stopped using 100 μl BIOMOL® Green and after being left for 30 min at room temperature, the absorbance was read using spectrophotometry at 630 nm. […] Using the BIOMOL® Green assay, standards (0-2 nM) and samples were then incubated with 0.5 mM p-nitrophenyl phosphate (pNPP) for 30 min at 37 °C with gentle agitation. The reaction was stopped using 100 μl BIOMOL® Green and after being left for 30 min at room temperature, the absorbance was read using spectrophotometry at 630 nm.

[2] = system: Primary calvarial osteoblasts; assay: Primary osteoblast matrix mineralisation (Alizarin red, 28 days); format: cell-based, mice
Protocol: Primary calvarial osteoblasts were obtained from 4-day-old wild-type C57Bl/6 mice. Primary osteoblasts were isolated by sequential enzyme digestion of excised calvarial bones using a four-step process as has previously been described [1 mg/ml collagenase type II in Hanks’ balanced salt solution (HBSS) for 10 min; 1 mg/ml collagenase type II in HBSS for 30 min; 4 mM EDTA for 10 min; 1 mg/ml collagenase type II in HBSS for 30 min]. The first digest was discarded and the cells were re-suspended in growth medium consisting of a-MEM (Invitrogen, Paisley, UK) supplemented with 10% (v/v) FBS and 1% gentamycin (Invitrogen). Osteoblasts were seeded at a density of 1 × 10^4 cells/cm^2 and grown to confluency at which point 2 mM β-glycerophosphate and 50 µg/ml ascorbic acid was added along with a PPI (0–50 µM) as described in the results. Media was changed every 2–3 days for the duration of the 28-day experiments. After 28 days, primary cell cultures were fixed in 4% paraformaldehyde for 5 min at room temperature. Cell monolayers were stained with aqueous 2% (w/v) Alizarin red solution for 5 min at room temperature. The bound stain was solubilised in 10% cetylpyridinium chloride and the optical density of the resultant eluted solution measured by spectrophotometry at 570 nm.

recombinant human TNAP = target: T2, recombinant human TNAP (Homo sapiens, UniProt P05186); assay: TNAP phosphatase assay (BIOMOL Green, pNPP); format: biochemical; details: all concentrations tested (0-100 µM)
T2 construct: purchased R&D Systems
T2 sequence (P05186 18-524): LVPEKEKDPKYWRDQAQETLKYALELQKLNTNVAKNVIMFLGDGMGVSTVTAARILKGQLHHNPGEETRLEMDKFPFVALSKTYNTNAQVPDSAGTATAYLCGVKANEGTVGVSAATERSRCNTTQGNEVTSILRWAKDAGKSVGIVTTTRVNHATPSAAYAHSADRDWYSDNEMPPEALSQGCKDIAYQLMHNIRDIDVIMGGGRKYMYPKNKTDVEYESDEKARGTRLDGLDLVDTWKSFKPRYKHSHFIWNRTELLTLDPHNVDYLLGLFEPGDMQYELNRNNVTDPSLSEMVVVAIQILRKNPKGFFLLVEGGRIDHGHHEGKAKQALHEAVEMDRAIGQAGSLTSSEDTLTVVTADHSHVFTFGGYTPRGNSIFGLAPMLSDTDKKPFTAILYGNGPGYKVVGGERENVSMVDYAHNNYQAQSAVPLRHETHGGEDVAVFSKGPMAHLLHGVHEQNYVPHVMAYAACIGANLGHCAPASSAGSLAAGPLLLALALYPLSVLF
Protocol: Recombinant human PHOSPHO1 (50 ng) was generated as previously described and incubated with varying concentrations of the aforementioned PPIs and H2RAs in experimental assay buffer (20 mM Tris, 2 mM MgCl2 & 25 µg/ml BSA) at 37 °C for 15 min. Using the BIOMOL® Green assay (Enzo, Exeter, UK), standards (0-2 nM) and samples were then incubated with 2.5 mM β-glycerol phosphate for 30 min at 37 °C with gentle agitation. The reaction was stopped using 100 µl BIOMOL® Green and after being left for 30 min at room temperature, the absorbance was read using spectrophotometry at 630 nm. For TNAP, 2 ng recombinant human TNAP (R&D Systems, Abington, UK), was incubated with varying concentrations of the aforementioned PPIs and H2RAs in experimental assay buffer (1 M diethylamine hydrochloride, 1 mM MgCl2 and 20 µM ZnCl2). Using the BIOMOL® Green assay, standards (0-2 nM) and samples were then incubated with 0.5 mM p-nitrophenyl phosphate (pNPP) for 30 min at 37 °C with gentle agitation. The reaction was stopped using 100 µl BIOMOL® Green and after being left for 30 min at room temperature, the absorbance was read using spectrophotometry at 630 nm.

osteoblasts = system: osteoblasts; design: method as in PMID 23937530; details: cited from earlier work
developing chick embryos = system: developing chick embryos; design: method as in PMID 20053388; details: administration to developing chick embryos; cited from earlier work
[3] = system: tissue non-specific alkaline phosphatase (TNAP); design: method as in PMID 17227223; details: cited from earlier work
osteoblast MV = details: cited from earlier work
[4] = target: T1, Recombinant human PHOSPHO1; design: method as in PMID 17227223; details: non-competitive; cited from earlier work
rodents = system: rodents; design: method as in PMID 11589371, PMID 26229922; details: rodents administered the drug; cited from earlier work
healthy subjects = details: short-term treatment; cited from earlier work

IC50 [1] | Inhibition of TNAP activity (in words) (recombinant human TNAP) | SMILES | Inhibition of PHOSPHO1 activity (in words) [1] | Matrix mineralisation (Alizarin red) ([2]; 10 µM) | Ability of osteoblasts to mineralise their matrix (osteoblasts) | other results
 |  | CN/C(=N/CCSCc1nc[nH]c1C)NC#N [cimetidine] | no inhibitory effects; also recorded: no inhibition |  |  | 
0.73 µM and 0.726 µM | did not inhibit | COc1ccc2nc([S@@+]([O-])Cc3ncc(C)c(OC)c3C)[nH]c2c1 [esomeprazole] |  | significantly inhibited matrix mineralisation | decreased the ability of osteoblasts to mineralise their matrix | 
 |  | NC(N)=Nc1nc(CSCCC(N)=NS(N)(=O)=O)cs1 [famotidine] | no inhibitory effects; also recorded: no inhibition |  |  | 
2.77 µM | did not inhibit | Cc1c(OCC(F)(F)F)ccnc1C[S+]([O-])c1nc2ccccc2[nH]1 (centres unmarked) [lansoprazole] |  | significantly decreased matrix mineralisation | decreased the ability of osteoblasts to mineralise their matrix | Mineralisation of leg and wing long bones (developing chick embryos): completely inhibited mineralisation; Matrix mineralisation (Alizarin red) ([2]; 5 µM): significantly decreased matrix mineralisation; Effect on TNAP activity [3]: no effect; Inhibition of osteoblast MV calcification (osteoblast MV): 57%; Mineralisation of MVs isolated from osteoblasts (osteoblast MV): impairs their mineralisation; Inhibition of recombinant human PHOSPHO1 activity [4]: over 70%
 |  | CNC(=C[N+](=O)[O-])NCCSCc1csc(CN(C)C)n1 [nizatidine] | no inhibitory effects; also recorded: no inhibition |  |  | 
2.8 µM | did not inhibit | COc1ccc2[nH]c([S+]([O-])Cc3ncc(C)c(OC)c3C)nc2c1 (centres unmarked) [omeprazole] |  | significantly inhibited matrix mineralisation | decreased the ability of osteoblasts to mineralise their matrix | Bone mineral content and BMD (rodents): reduced bone mineral content and BMD; Effect on calcium absorption (healthy subjects): not found to have inhibitory effects
19.3 µM | did not inhibit | COc1ccnc(C[S+]([O-])c2nc3ccc(OC(F)F)cc3[nH]2)c1OC (centres unmarked) [pantoprazole] |  | not sufficient to inhibit matrix mineralisation |  | Matrix mineralisation (Alizarin red) ([2]; 5 µM): not sufficient to inhibit matrix mineralisation; Matrix mineralisation (Alizarin red) ([2]; 50 µM): significant decrease in matrix mineralisation
 |  | CNC(=C[N+](=O)[O-])NCCSCc1ccc(CN(C)C)o1 [ranitidine] | no inhibitory effects; also recorded: no inhibition |  |  | 
